What all share (format): physicochemical
Data set [1] can be described thus: Cyclic voltammetry and optical band gap: energy levels in DMF and DCM solution. To be noted: for EHOMO: EHOMO=ELUMO+Eg opt; for ELUMO: calculated from E vs Fc/Fc^+ with conversion factors; for λ: edge of electronic absorption spectrum in solution; for E vs Fc/Fc^+: glassy carbon electrode, 0.1 M tetrabutylammonium hexafluorophosphate, calibrated with ferrocene; for Eg^opt-sol: optical band gap, Eg opt=1240/λ. Here is the method: CV measurements were carried out by a three-electrode assembly cell from Bio-Logic SP-150. The measurements were carried out at a glassy carbon electrode in DMF and DCM solutions containing 0.1 M tetrabutylammonium hexafluorophosphate as an electrolyte, Pt as the counter electrode and as the reference electrode. Each measurement was calibrated with ferrocene (Fc) and potentials calculated to Fc^+/Fc. Conversion factors: ferrocene in DCM vs SCE 0.46, DMF vs SCE 0.45, SCE vs SHE: 0.244, SHE vs vacuum: 4.43 (N. G. Connelly, W. E. Geiger, Chemical Reviews 1996, 96, 877; V. V. Pavlishchuk, A. W. Addison, Inorganica Chimica Acta 2000, 298, 97). The half-wave potential E1/2vs Fc was obtained as an average value between maxima of cathodic and anodic potentials: E1/2 vs Fc=1/2([…]). The optical band gaps Eg opt=1240/λ was estimated from the edges of electronic absorption spectra in DCM and DMF solutions. ELUMO was calculated from the equation ELUMO=(E vs Fc/Fc^++(solvent vs SCE)+0.244+4.43. EHOMO calculated from the equation EHOMO=ELUMO[…].

Data set [2] is described as follows: Solubility in organic solvents.
The nature of data set [3]: Thermogravimetric analysis (TGA). To be noted: scan rate 10 K min^−1, nitrogen atmosphere. Here is the method: TGA was performed on a Q50 thermogravimetric analyzer (TA Instruments) at a scan rate of 10 K min^−1 in the nitrogen atmosphere.
Data set [4] can be described thus: UV/vis absorption and transmittance spectra. From the text: In the n-i-p structure PSC light first posses through the ETL, thus it is important to minimize parasitic absorption of this layer.
Data set [5] in a line: Contact potential difference (CPD) surface mapping on ITO. From the text: The surface mapping of contact potential difference (CPD) values of V1264 on ITO confirmed uniformity of SAM coverage. The rather homogenous pattern was proportional to the narrow work function (WF) fluctuation in a specific area (˜4.45 eV), overall indicating a good V1264 coverage on ITO.
Data set [6] can be described thus: Water contact angle of ITO/SAM surface. The conditions noted are these: coated onto ITO, washed to remove unbound molecules. From the text:
It is noted that all the samples were washed with respective solvents to remove unbounded SAM molecules from the ITO substrate. […] The higher hydrophobicity of ITO/SAM substrate will affect the crystallization and morphology of perovskite film.^[21,22] The more hydrophobic surface (less wetting) of ITO/NDI-SAM surface can suppress the dragging force of perovskite inks, resulting in larger grain-size perovskite crystals, as indicated from top-view scanning electron microscopy (SEM) images in FIG. 6a,b.^[21,22] In addition, the tertbutyl groups of V1264 on the upper side can interact well with the perovskite layer, resulting in less pinholes or voids formed at ITO/V1264/perovskite interface, see FIG. 7.

Where [7] appears, read: CHCl3, organic solvent or mixture, read-out: Solubility in CHCl3.
Setting [8] is: DCM, organic solvent or mixture, read-out: Solubility in DCM.
[9] abbreviates: THF, organic solvent or mixture, read-out: Solubility in THF.
[10] abbreviates: organic solvent or mixture, methanol, sonicated, read-out: Solubility in Methanol.

Where two headings read alike, the source gives them in different places. Where only a bound is given, the exact number is not on record here.

For `CC(C)(C)c1ccc(C(C)(C)C)c(N2C(=O)c3ccc4c5c(ccc(c35)C2=O)C(=O)N(CCP(=O)(O)O)C4=O)c1` [Compound V1624, N-(2,5-di-tert-butyl-phenyl)-N′-(ethyl)-1,4,5,8-naphthalene tetracarboxylic diimide phosphonic acid], in data set [1], the EHOMO is on record as −7.11 eV, the ELUMO is −3.96 eV, the λ stood at 393 nm and the “E vs Fc/Fc^+” value is reported as −1.16 V. The “Eg^opt-sol” value in data set [1] came out at 3.15 eV. The solubility in data set [2] (setting [7]) is at most 5000 µg/mL. In addition, in data set [2] (setting [8]), the solubility was at most 7000 µg/mL. In addition, in data set [2] (setting [9]), the solubility was at most 1000 µg/mL.
Consider `O=C1c2cc(Br)c3c4c(cc(Br)c(c24)C(=O)N1CP(=O)(O)O)C(=O)N(CP(=O)(O)O)C3=O` [Compound V1486], for which, in data set [1], the EHOMO was −6.76 eV, the ELUMO is on record as −3.86 eV, the λ was found to be 426 nm and the “E vs Fc/Fc^+” value was −1.26 V. For the same compound, the “Eg^opt-sol” value in data set [1] is reported as 2.90 eV. In addition, the solubility in data set [2] (organic solvent or mixture, THF, sonicated, read-out: Solubility in THF) was at most 500 µg/mL. Moreover, in data set [2] (organic solvent or mixture, isopropanol, sonicated, read-out: Solubility in Isopropanol), the solubility is at most 500 µg/mL. Moreover, the solubility in data set [2] (setting [10]) was at most 700 µg/mL.
As for `O=C1c2ccc3c4c(ccc(c24)C(=O)N1CCP(=O)(O)O)C(=O)N(CCP(=O)(O)O)C3=O` [Compound V1625, N, N′-bis(ethyl)-1,4,5,8-naphthalene tetracarboxylic diimide diphosphonic acid], in data set [1], the EHOMO is recorded as −6.91 eV, the ELUMO is −3.79 eV, the λ was 397 nm and the “E vs Fc/Fc^+” value is recorded as −1.32 V. In data set [1], the “Eg^opt-sol” value was 3.12 eV. Besides, the solubility in data set [2] (setting [10]) was at most 500 µg/mL.
As for `O=C1c2ccc3c4c(ccc(c24)C(=O)N1CP(=O)(O)O)C(=O)N(CP(=O)(O)O)C3=O` [Compound V1612, N, N′-bi(methyl)-1,4,5,8-naphthalene tetracarboxylic diimide diphosphonic acid], in data set [1], the EHOMO is recorded as −6.97 eV, the ELUMO was −3.9 eV, the λ is recorded as 403 nm and the “E vs Fc/Fc^+” value is −1.17 V. The “Eg^opt-sol” value in data set [1] is 3.07 eV. Moreover, in data set [2] (setting [10]), the solubility is at most 500 µg/mL.
With `CC(C)(C)c1ccc(C(C)(C)C)c(N2C(=O)c3ccc4c5c(ccc(c35)C2=O)C(=O)N(c2ccc(P(=O)(O)O)cc2)C4=O)c1` [Compound V1635], in data set [1], the EHOMO is reported as −6.98 eV, the ELUMO is given as −3.84 eV, the λ turned out to be 394 nm and the “E vs Fc/Fc^+” value was −1.28 V. The “Eg^opt-sol” value in data set [1] was found to be 3.14 eV. Also, the solubility in data set [2] (setting [7]) is at most 15000 µg/mL. In addition, the solubility in data set [2] (setting [8]) is at most 10000 µg/mL.
Take `CC(C)(C)c1ccc(C(C)(C)C)c(N2C(=O)c3ccc4c5c(ccc(c35)C2=O)C(=O)N(CP(=O)(O)O)C4=O)c1` [Compound V1264, N-(2,5-di-tert-butyl-phenyl)-N′-(methyl)-1,4,5,8-naphthalene tetracarboxylic diimide phosphonic acid]: the “95% weight loss temperature” value in data set [3] came to 356 °C. In data set [1], the EHOMO is recorded as −6.97 eV, the ELUMO is on record as −3.81 eV, the λ was 392 nm and the “E vs Fc/Fc^+” value is listed as −1.34 V. The “Eg^opt-sol” value in data set [1] is on record as 3.16 eV. For the same compound, the “Voltammogram behaviour in solution” value in data set [1] (during the scans) is reported as “reversible reduction waves”. Further, the “Absorption in the visible region” value in data set [4] (UV/vis, 10^−4 M anhydrous dichloromethane) is recorded as “no apparent absorption in the visible region”. For the same compound, the “Optical losses (UV-Vis transmittance) of SAM on ITO surface” value in data set [4] (compared to bare ITO and ITO/SnO2 films) is “neglectable optical losses”. Further, the “Work function (WF)” value in data set [5] is recorded as around 4.45 eV. In data set [2] (setting [7]), the solubility is at most 7500 µg/mL. Besides, the solubility in data set [2] (setting [8]) is at most 15000 µg/mL. In data set [2] (setting [9]), the solubility is at most 6500 µg/mL. Also, in data set [2] (chlorobenzene, organic solvent or mixture, read-out: Solubility in Chlorobenzene), the solubility was at most 13000 µg/mL. The solubility in data set [2] (toluene, organic solvent or mixture, read-out: Solubility in Toluene) is at most 800 µg/mL. The “Water contact angle (surface hydrophobicity)” value in data set [6] is given as “around 78.4 °”.

For orientation: solubility means how much of the substance goes into solution per volume.
